Assay results from PMC8262356, “SLC26A6-selective inhibitor identified in a small-molecule screen blocks fluid absorption in small intestine” (JCI Insight, 2021).

Tests used:
PAT1 (murine slc26a6) = biological target: T1, PAT1 (murine slc26a6) (Mus musculus, UniProt Q8CIW6); assay: PAT1-mediated Cl-/I- exchange, YFP fluorescence quenching in FRT cells; format: cell-based; settings: for effect on PAT1-mediated Cl-/I- exchange: 100 μM agonist
T1 construct: host or cells: Fischer rat thyroid (FRT) cells, lentiviral transduction (pLVX-IRES-mCherry-slc26a6), clonal line FRT-YFP-slc26a6
T1 sequence (Q8CIW6 24-758 limits assumed): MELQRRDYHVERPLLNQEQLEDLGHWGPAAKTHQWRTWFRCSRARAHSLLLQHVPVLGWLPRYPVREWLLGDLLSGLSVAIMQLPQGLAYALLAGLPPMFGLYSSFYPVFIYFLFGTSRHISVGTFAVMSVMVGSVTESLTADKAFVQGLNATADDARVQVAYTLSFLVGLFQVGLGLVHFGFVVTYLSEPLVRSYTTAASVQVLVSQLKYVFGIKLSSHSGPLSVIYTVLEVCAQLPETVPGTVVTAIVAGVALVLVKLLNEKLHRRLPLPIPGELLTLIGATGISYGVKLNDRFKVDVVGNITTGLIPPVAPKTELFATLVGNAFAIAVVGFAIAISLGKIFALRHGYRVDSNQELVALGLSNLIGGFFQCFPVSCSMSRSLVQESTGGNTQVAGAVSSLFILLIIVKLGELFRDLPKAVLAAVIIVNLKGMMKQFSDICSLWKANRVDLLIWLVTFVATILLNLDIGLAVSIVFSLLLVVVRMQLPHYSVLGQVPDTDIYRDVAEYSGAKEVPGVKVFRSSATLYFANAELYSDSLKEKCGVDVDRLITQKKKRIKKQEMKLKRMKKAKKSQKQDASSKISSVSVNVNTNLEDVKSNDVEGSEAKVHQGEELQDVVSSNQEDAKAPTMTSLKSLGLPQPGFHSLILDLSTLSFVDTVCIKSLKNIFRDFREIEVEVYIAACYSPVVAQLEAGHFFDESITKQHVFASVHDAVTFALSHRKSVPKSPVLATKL
Experimental: A small-molecule screen was developed to identify PAT1 inhibitors utilizing transfected FRT cells expressing PAT1 (murine slc26a6) together with a halide-sensing cytoplasmic YFP (Figure 1A). Adherent cells in a 96-well format were subjected to an inward gradient of I^– to drive exchange of I^– for Cl^– and consequent quenching of the YFP fluorescence signal.
A collection of approximately 50,000 diverse, drug-like synthetic small molecules (ChemDiv) was screened at a concentration of 25 μM using a Beckman Coulter BioMek FX liquid handling platform with FLUOstar OMEGA plate readers (BMG Labtech). FRT-YFP-slc26a6 cells were plated in 96-well black-walled, clear-bottom plates (Corning Life Sciences) at a density of 20,000 cells/well and cultured for 48 hours until confluent. Cells were washed twice in PBS and incubated for 10 minutes prior to assay in 100 μl PBS containing test compounds. For assay of slc26a6 function, baseline cellular fluorescence was measured for 2 seconds, after which 100 μl NaI-substituted PBS (140 mM NaCl replaced by 140 mM NaI) was added by syringe pump to drive Cl^–/I^– exchange. The initial rate of Cl^–/I^– exchange was determined by single exponential regression of the fluorescence time course. All assay plates contained wells with negative (1% DMSO) and positive (500 μM niflumic acid) controls. For structure-activity relationship studies, analogs of active compounds were purchased from ChemDiv.

[1] = system: mouse midjejunal closed loops; design: method as in PMID 30046015; settings: 10 μM; cited from earlier work
[2] = system: mouse distal colonic closed loops; assay: Closed distal colonic loop fluid absorption; format: in vivo; settings: 10 μM luminal
Experimental: For fluid absorption studies in colon, mice were given free access to 5% dextrose in water but not solid food for 48 hours. Mice were treated with 500 μL mineral oil twice a day rectally (final dose 16 h before surgery) during this period to evacuate the colon. Closed distal colonic loops (length 1.5–2 cm, 1 loop per mouse) were isolated as described previously ([7]). Loops were injected with 100 μL PBS with 30 μM PAT1inh-B01, 10 μM DRAinh-A270, or 10 μM tenapanor (or vehicle). In some experiments, 30 μM PAT1inh-B01 and 10 μM DRAinh-A270 were used together. Colonic loops were removed at 0 and 60 minutes (in separate mice), and loop length and weight were measured to quantify fluid absorption.

[3] = system: ileal closed loops in cystic fibrosis (CF) mice (homozygous F508del); assay: Closed ileal loop fluid absorption in CF mice; format: in vivo, mouse; settings: 10 μM luminal
Experimental: (§1) For fluid absorption studies in small intestine, mice were given free access to 5% dextrose in water but not solid food for 24 hours before experiments. Closed midjejunal and ileal loops were prepared and isolated as described previously ([29]). Mice were anesthetized with isoflurane, and body temperature was maintained during surgery at 36°C–38°C using a heating pad. A small abdominal incision was made to expose small intestine for isolation of 3–4 closed small intestinal loops (jejunum or ileum, length 2–3 cm) with sutures. Loops were injected with 100 μL PBS (pH 7.4, 137 mM NaCl, 2.7 mM KCl, 8 mM Na2HPO4, 1.8 mM KH2PO4, 1 mM CaCl2, 0.5 mM MgCl2) containing 30 μM PAT1inh-B01, 10 μM DRAinh-A270, or 10 μM tenapanor (MedChemExpress) (or vehicle, 0.1% DMSO in PBS). In some experiments, 30 μM PAT1inh-B01 and 10 μM DRAinh-A270 were used together. In some experiments to rule out effects of sodium-dependent phosphate transport, the loop lumen contained HEPES-buffered saline (pH 7.4, 137 mM NaCl, 4.5 mM KCl, 10 mM HEPES, 1 mM CaCl2, 0.5 mM MgCl2). The abdominal incision was closed with sutures, and mice were allowed to recover from anesthesia. Intestinal loops were removed at 0 and 30 minutes (in separate mice), and loop length and weight were measured to quantify fluid absorption. In parallel experiments, CF mice were used and loop studies were done as described above. In some experiments, loop fluid was emptied with a syringe, and pH was measured immediately using AB15 pH meter after brief centrifugation at 2000 g for 5 minutes at 4°C.

mouse ileal closed loops = assay: Closed ileal loop fluid absorption; format: in vivo; settings: 10 μM luminal, 30 minutes, PBS
Experimental: as §1

DRA = DRA inhibition potency comparison; settings: vs DRAinh-A250
[4] = system: mouse midjejunal closed loops; assay: Closed midjejunal loop fluid absorption; format: in vivo; settings: 10 μM luminal, 30 minutes
Experimental: as §1, with “The abdominal incision was closed with sutures, and mice were allowed to recover from anesthesia.” left out, “In parallel experiments, CF mice were used and loop studies were done as described above.” left out

[5] = system: loperamide-induced constipation in mice; assay: Loperamide model of constipation; format: in vivo, mouse; settings: 10 mg/kg, oral, stool collected over 3 hours
Experimental: Wild-type CD1 mice were administered loperamide (0.3 mg/kg, intraperitoneally) in PBS containing 5% ethanol (0.1 mg/mL final concentration) to induce constipation ([9], [30]). PAT1inh-B01 and DRAinh-A270, individually or together (10 mg/kg each, in saline containing 5% DMSO and 10% Kolliphor HS 15), or vehicle control were administered by oral gavage 1 hour before loperamide. After loperamide injection mice were placed individually in metabolic cages with free access to food and water. Stool samples were collected for 3 hours, and total stool weight and number of fecal pellets were quantified. To measure stool water content, stool samples were dried at 80°C for 24 hours and water content was calculated as follows: (wet weight – dry weight)/wet weight ([9], [30]).

Row | Compound | effect on PAT1-mediated Cl-/I- exchange (PAT1 (murine slc26a6)) | effect on colonic fluid absorption (loop weight-to-length ratio) [2] | effect on fluid absorption from ilea of CF mice [3] | effect on ileal fluid absorption (loop weight-to-length ratio) (mouse ileal closed loops) | inhibition of fluid absorption (decrease in loop weight-to-length ratio) [4] | also measured
1 | Nc1nc2c(nc(Br)n2[C@@H]2O[C@@H]3COP(=O)(O)O[C@H]3[C@H]2O)c(=O)[nH]1 [8-Br-cGMP, reference compound] | did not significantly affect | – | – | – | – | –
2 | Nc1ncnc2c1ncn2[C@@H]1O[C@H](COP(=O)(O)OP(=O)(O)OP(=O)(O)O)[C@@H](O)[C@H]1O [ATP, reference compound] | did not significantly affect | – | – | – | – | –
3 | Cc1c(CC(=O)O)c(=O)oc2c(C)c(OCc3cccc(Br)c3)ccc12 [DRAinh-A250] | – | – | – | – | – | effect on fluid absorption in closed midjejunal loops [1]: did not significantly affect
4 | Cc1c(CC(=O)O)c(=O)oc2c(C)c(OCc3cccc(I)c3)ccc12 [DRAinh-A270] | – | completely prevented | no effect | did not inhibit | approximately 50% | potency as DRA inhibitor relative to DRAinh-A250 (DRA): 5 fold; effect on number of pellets [5]: increased; effect on stool water content [5]: normalized; effect on stool weight [5]: increased
5 | O=C(O)c1cccnc1Nc1cccc(C(F)(F)F)c1 [niflumic acid, reference compound] | – | – | – | – | – | IC50 (PAT1 (murine slc26a6); FRT cells expressing PAT1 and YFP, read-out: IC50, inhibition of PAT1-mediated Cl-/I- exchange): 200 µM
6 | CN1Cc2c(Cl)cc(Cl)cc2[C@H](c2cccc(S(=O)(=O)NCCOCCOCCNC(=O)NCCCCNC(=O)NCCOCCOCCNS(=O)(=O)c3cccc([C@@H]4CN(C)Cc5c(Cl)cc(Cl)cc54)c3)c2)C1 [tenapanor] | – | did not inhibit | completely blocked | comparable | comparable | –
